For 27 molecules, IC50 results are on record in patent publication US8658661B2, “Oxadiazole inhibitors of leukotriene production” (Boehringer Ingelheim International GmbH, priority 2010, dated 2014).

Experiment [1] deals with T1, recombinant human FLAP protein (Homo sapiens, UniProt P20292).
T1 construct: made in house; host or cells: Sf9 insect cells (100,000×g membrane pellet used)
T1 sequence (P20292 1-161): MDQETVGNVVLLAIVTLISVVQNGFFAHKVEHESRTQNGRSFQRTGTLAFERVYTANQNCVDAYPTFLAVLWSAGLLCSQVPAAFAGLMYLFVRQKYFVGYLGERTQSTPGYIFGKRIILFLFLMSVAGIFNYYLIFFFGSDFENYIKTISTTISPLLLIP
The experiment can be described thus: FLAP binding assay (SPA, displacement of [125I]L-691,831). As to conditions: membranes of sf9 cells expressing recombinant human FLAP; [125I]L-691,831 probe; read-out: FLAP binding IC50. The procedure, abridged: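 Membranes from sf9 cells expressing human FLAP in pH 7.5 Tris buffer (MgCl2, EDTA, PMSF). Non-specific binding defined with 10 μM cold L-691,831.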
Background: Displacement assays read how much labelled ligand stays bound in the presence of the test substance.

The subject of experiment [2] is synthesis of LTB4 in human whole blood. The experiment can be described thus: Human whole blood assay (inhibition of LTB4 synthesis, calcimycin stimulated). The class given is cell-based. Particulars: heparinized human whole blood, calcimycin 20 μM, plasma LTB4. The procedure, abridged:
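Heparinized human whole blood was preincubated with compound for 15 min at 37° C, then stimulated with calcimycin (20 μM final, in PBS pH 7.4) for a further 30 min at 37° C. Plasma LTB4 was quantified by antibody-based homogeneous time-resolved fluorescence.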

One may read the IC50 as the midpoint of a concentration-inhibition curve.

Consider `CC(C)[C@@](C)(c1ccc(-c2cnc(N)nc2)cc1)c1noc(-c2cnn(CC(C)(C)O)c2)n1` [Example 108, 1-[4-(3-{(2S)-2-[4-(2-aminopyrimidin-5-yl)phenyl]-3-methylbutan-2-yl}-1,2,4-oxadiazol-5-yl)-1H-pyrazol-1-yl]-2-methylpropan-2-ol], for which the results for the IC50 in experiment [1] and in experiment [2] were 8.7 nM and 320 nM, respectively.

As for `CC(c1ccc(-c2cnc(N)nc2)cc1)(c1noc(N2CCCC2)n1)C1CC1` (stereo not drawn) [Example 204, 5-{4-[1-Cyclopropyl-1-(5-pyrrolidin-1-yl-[1,2,4]oxadiazol-3-yl)-ethyl]-phenyl}-pyrimidin-2-ylamine], the IC50 in experiment [1] amounted to 13 nM; in experiment [2], 150 nM.

As to `CN(C)C(=O)Cn1cc(-c2nc(C(C)(c3ccc(-c4cnc5c(c4)CCN5)cc3)C3CC3)no2)cn1` (stereo not drawn) [Example 241, 2-[4-(3-{1-Cyclopropyl-1-[4-(2,3-dihydro-1H-pyrrolo[2,3-b]pyridin-5-yl)-phenyl]-ethyl}-[1,2,4]oxadiazol-5-yl)-pyrazol-1-yl]-N,N-dimethyl-acetamide], the IC50 was found to be 3.4 nM in experiment [1] and 170 nM in experiment [2].

`CC(C)C(C)(c1ccc(-c2cnc(N)nc2)cc1)c1noc(C2CCCC(=O)N2C)n1` (stereo not drawn) [Example 166, 6-(3-{2-[4-(2-aminopyrimidin-5-yl)phenyl]-3-methylbutan-2-yl}-1,2,4-oxadiazol-5-yl)-1-methylpiperidin-2-one]: the IC50 in experiment [1] turned out to be 26 nM; in experiment [2] it was 2400 nM.

With `CC(c1ccc(-c2cnc(N)nc2)cc1)(c1noc(-c2cc[nH]n2)n1)C1CC1` (stereo not drawn) [Example 25, 5-(4-{1-cyclopropyl-1-[5-(1H-pyrazol-3-yl)-1,2,4-oxadiazol-3-yl]ethyl}phenyl)pyrimidin-2-amine], the IC50 in experiment [1] came to 6 nM; in experiment [2], 170 nM.

For `CN(C)C(=O)Cn1cc(-c2nc(C(C)(c3ccc(-c4ncc(N)nc4C#N)cc3)C3CC3)no2)cn1` (stereo not drawn) [Example 295, 2-[4-(3-{1-[4-(5-Amino-3-cyano-pyrazin-2-yl)-phenyl]-1-cyclopropyl-ethyl}-[1,2,4]oxadiazol-5-yl)-pyrazol-1-yl]-N,N-dimethyl-acetamide], the IC50 in experiment [1] was 7.5 nM; in experiment [2], 150 nM.

In the case of `CNC(=O)Cn1cc(-c2nc([C@@](C)(c3ccc(-c4cnc(N)nc4)cc3)C3CC3)no2)cn1` [Example 230, 2-[4-(3-{(R)-1-[4-(2-Amino-pyrimidin-5-yl)-phenyl]-1-cyclopropyl-ethyl}-[1,2,4]oxadiazol-5-yl)-pyrazol-1-yl]-N-methyl-acetamide], the results for the IC50 in experiment [1] and in experiment [2] were 3.8 nM and 160 nM, respectively.

Consider `C[C@@](c1ccc(-c2cnc(N)nc2)cc1)(c1noc(-c2cn[nH]c2)n1)C1CC1` [Example 48, 5-(4-{(R)-1-cyclopropyl-1-[5-(1H-pyrazol-4-yl)-[1,2,4]oxadiazol-3-yl]-ethyl}-phenyl)-pyrimidin-2-ylamine], for which the values for the IC50 in experiment [1] and in experiment [2] were 6.8 nM and 190 nM, respectively.

On to `CC(C)C(C)(c1ccc(-c2cnc(N)nc2)cc1)c1noc(N2CCC(N(C)C)CC2)n1` (stereo not drawn) [Example 218], for which the IC50 in experiment [1] was 130 nM; in experiment [2], 920 nM.

In the case of `CC(C)C(C)(c1ccc(-c2cnc(N)nc2)cc1)c1noc(-c2ncc[nH]2)n1` (stereo not drawn) [Example 20, 5-(4-{2-[5-(1H-imidazol-2-yl)-1,2,4-oxadiazol-3-yl]-3-methylbutan-2-yl}phenyl)pyrimidin-2-amine], the IC50 in experiment [1] is 10 nM; in experiment [2], 3200 nM.

Consider `CC(C)C(C)(c1ccc(-c2cnc(N)nc2)cc1)c1noc(N2CCN(S(C)(=O)=O)CC2)n1` (stereo not drawn) [Example 170, 5-(4-{1-[5-(4-Methanesulfonyl-piperazin-1-yl)-[1,2,4]oxadiazol-3-yl]-1,2-dimethyl-propyl}-phenyl)-pyrimidin-2-ylamine], for which the IC50 in experiment [1] came out at 14 nM; in experiment [2], 310 nM.

For the molecule `CC(C)C(C)(c1ccc(-c2cnc(N)nc2)cc1)c1noc(N2CCOCC2)n1` (stereo not drawn) [Example 89, 5-(4-{3-methyl-2-[5-(morpholin-4-yl)-1,2,4-oxadiazol-3-yl]butan-2-yl}phenyl)pyrimidin-2-amine], the figures for the IC50 in experiment [1] and in experiment [2] were 13 nM and 270 nM, respectively.

As to `CC(c1ccc(-c2cnc(N)nc2)cc1)(c1noc(-c2cn(C3COC3)cn2)n1)C1CC1` (stereo not drawn) [Example 207, 5-(4-{1-Cyclopropyl-1-[5-(1-oxetan-3-yl-1H-imidazol-4-yl)-[1,2,4]oxadiazol-3-yl]-ethyl}-phenyl)-pyrimidin-2-ylamine], the IC50 in experiment [1] is 92 nM; in experiment [2], 700 nM.

As to `COc1ccc(-c2nc(C(C)(c3ccc(-c4cnc(N)nc4)cc3)C(C)C)no2)cn1` (stereo not drawn) [Example 8, 5-(4-{2-[5-(6-methoxypyridin-3-yl)-1,2,4-oxadiazol-3-yl]-3-methylbutan-2-yl}phenyl)pyrimidin-2-amine], the IC50 in experiment [1] is 3.8 nM; in experiment [2], 530 nM.

Take `Cc1nc(-c2ccc([C@](C)(c3noc(-c4cnn(CC(C)(C)O)c4)n3)C3CC3)cc2)cnc1N` [Example 180, 1-[4-(3-{(R)-1-[4-(5-Amino-6-methyl-pyrazin-2-yl)-phenyl]-1-cyclopropyl-ethyl}-[1,2,4]oxadiazol-5-yl)-pyrazol-1-yl]-2-methyl-propan-2-ol]: the IC50 in experiment [1] is 2.9 nM; in experiment [2], 29 nM.

`CC(C)(O)CNc1cnc(-c2nc([C@](C)(c3ccc(-c4cnc(N)nc4)cc3)C3CC3)no2)cn1` [Example 51, 1-{[5-(3-{(1S)-1-[4-(2-aminopyrimidin-5-yl)phenyl]-1-cyclopropylethyl}-1,2,4-oxadiazol-5-yl)pyrazin-2-yl]amino}-2-methylpropan-2-ol]: the IC50 in experiment [1] came out at 3.9 nM; in experiment [2], 140 nM.

In the case of `CC(C)C(C)(c1ccc(-c2cnc(N)nc2)cc1)c1noc(NCCN(C)C)n1` (stereo not drawn) [Example 171, N-(3-{1-[4-(2-Amino-pyrimidin-5-yl)-phenyl]-1,2-dimethyl-propyl}-[1,2,4]oxadiazol-5-yl)-N′,N′-dimethyl-ethane-1,2-diamine], the IC50 in experiment [1] amounted to 220 nM; in experiment [2], 1900 nM.

As for `CC(C)C(C)(c1ccc(-c2cnc(N)c(CO)c2)cc1)c1noc(-c2cccnc2)n1` (stereo not drawn) [Example 6, [2-amino-5-(4-{3-methyl-2-[5-(pyridin-3-yl)-1,2,4-oxadiazol-3-yl]butan-2-yl}phenyl)pyridin-3-yl]methanol], the IC50 is 1.1 nM in experiment [1] and 70 nM in experiment [2].

`Cc1nc(-c2ccc([C@](C)(c3noc(-c4cnn(C)c4)n3)C3CC3)cc2)cnc1N` [Example 187, 5-(4-{(R)-1-Cyclopropyl-1-[5-(1-methyl-1H-pyrazol-4-yl)-[1,2,4]oxadiazol-3-yl]-ethyl}-phenyl)-3-methyl-pyrazin-2-ylamine]: the results for the IC50 in experiment [1] and in experiment [2] were 17 nM and 23 nM, respectively.

Take `CN(C)C(=O)Cn1cc(-c2nc([C@@](C)(c3ccc(-c4cnc(N)nc4)cc3)C3CCC3)no2)cn1` [Example 104, 2-[4-(3-{(1R)-1-[4-(2-aminopyrimidin-5-yl)phenyl]-1-cyclobutylethyl}-1,2,4-oxadiazol-5-yl)-1H-pyrazol-1-yl]-N,N-dimethylacetamide]: the values for the IC50 in experiment [1] and in experiment [2] were 6.1 nM and 130 nM, respectively.

As for `CC(C)C(C)(c1ccc(-c2cnc(N)nc2)cc1)c1noc(C2CCCCN2C(=O)OC(C)(C)C)n1` (stereo not drawn) [Example 112, tert-butyl 2-(3-{2-[4-(2-aminopyrimidin-5-yl)phenyl]-3-methylbutan-2-yl}-1,2,4-oxadiazol-5-yl)piperidine-1-carboxylate], the half-inhibitory concentration (IC50) is 190 nM in experiment [1] and over 5000 nM in experiment [2].

Regarding `CC(C)C(C)(c1ccc(-c2cnc(N)nc2)cc1)c1noc(C(=O)N2CCN(C)CC2)n1` (stereo not drawn) [Example 91, (3-{2-[4-(2-aminopyrimidin-5-yl)phenyl]-3-methylbutan-2-yl}-1,2,4-oxadiazol-5-yl)(4-methylpiperazin-1-yl)methanone], the IC50 came to 54 nM in experiment [1] and 1300 nM in experiment [2].

Turning to `CC1(O)CCN(c2nc(C(C)(c3ccc(-c4cnc(N)nc4)cc3)C3CC3)no2)CC1` (stereo not drawn) [Example 238, 1-(3-{1-[4-(2-Amino-pyrimidin-5-yl)-phenyl]-1-cyclopropyl-ethyl}-[1,2,4]oxadiazol-5-yl)-4-methyl-piperidin-4-ol], the IC50 in experiment [1] came to 5 nM; in experiment [2], 29 nM.

`Cc1ccc(-c2nc(C(C)(c3ccc(-c4cnc(N)nc4)cc3)C3CC3)no2)cn1` (stereo not drawn) [Example 29, 5-(4-{1-cyclopropyl-1-[5-(6-methylpyridin-3-yl)-1,2,4-oxadiazol-3-yl]ethyl}phenyl)pyrimidin-2-amine]: the IC50 in experiment [1] was determined as 5.3 nM; in experiment [2], 190 nM.

With `CNC(=O)Cn1cc(-c2nc([C@](C)(c3ccc(-c4cnc(N)nc4)cc3)C3CC3)no2)cn1` [Example 231, 2-[4-(3-{(S)-1-[4-(2-Amino-pyrimidin-5-yl)-phenyl]-1-cyclopropyl-ethyl}-[1,2,4]oxadiazol-5-yl)-pyrazol-1-yl]-N-methyl-acetamide], the half-maximal inhibitory concentration (IC50) was 120 nM in experiment [1] and 700 nM in experiment [2].

On to `COCCc1nc(C(C)(c2ccc(-c3cnc(N)nc3)cc2)C(C)C)no1` (stereo not drawn) [Example 232, 5-(4-{1-[5-(2-Methoxy-ethyl)-[1,2,4]oxadiazol-3-yl]-1,2-dimethyl-propyl}-phenyl)-pyrimidin-2-ylamine], for which the values for the IC50 in experiment [1] and in experiment [2] were 37 nM and 370 nM, respectively.

For `C[C@@](c1ccc(-c2cnc(N)nc2)cc1)(c1noc(-c2cnn(C3COC3)c2)n1)C1CCC1` [Example 102, 5-{4-[(1R)-1-cyclobutyl-1-{5-[1-(oxetan-3-yl)-1H-pyrazol-4-yl]-1,2,4-oxadiazol-3-yl}ethyl]phenyl}pyrimidin-2-amine], the IC50 turned out to be 1.6 nM in experiment [1] and 51 nM in experiment [2].
